Measured values as given in patent publication US10988523B2, “Modified lipidated Relaxin B chain peptides and their therapeutic use” (Sanofi, priority 2018, dated 2021).
*1 amine or outer side, *2 acyl side, *3 side chain or, on linkers, in order; H or OH if unused. Where a SMILES comes first, the peptide text is derived from it. Side-chain parts run from the residue outwards. [ ]: non-standard residue; d: D form. The star is where a group is joined. X3 = CCCCCCCCCCCCCCCC(=O)N[C@@H](CCC(=O)N[C@@H](CCC(=O)N[C@@H](CCC(=O)N[C@@H](CCC(=O)NCCCC[C@H](NC(=O)CCC(=O)NCCCOCCOCCOCCCNC(=O)CCC(=O)NCCCOCCOCCOCCCN*)C(N)=O)C(=O)O)C(=O)O)C(=O)O)C(=O)O; X5 = CCCCCCCCCCCCCCCC(=O)N[C@@H](CCC(=O)NCCCC[C@H](NC(=O)CC[C@H](NC(=O)CC[C@H](NC(=O)CC[C@H](NC(=O)CCC(=O)NCCCOCCOCCOCCCNC(=O)CCC(=O)NCCCOCCOCCOCCCN*)C(=O)O)C(=O)O)C(=O)O)C(N)=O)C(=O)O; γGlu = O=C(O)[C@H](CCC(=O)[*:2])N[*:1]; 1Nal = N[C@@H](Cc1cccc2ccccc12)C(=O)O; Stearoyl = CCCCCCCCCCCCCCCCCC(=O)*; Palmitoyl = CCCCCCCCCCCCCCCC(=O)*; αMeK = C[C@](N)(CCCCN)C(=O)O; Nle = CCCC[C@H](N)C(=O)O; AEEA = NCCOCCOCC(=O)O; Aib = CC(C)(N)C(=O)O

Target: T1, RXFP1 (Homo sapiens, UniProt Q9HBX9)
T1 construct: OVCAR5 cells expressing endogenous RXFP1; endogenous in cells; host or cells: OVCAR5 cells
T1 sequence (Q9HBX9 1-757): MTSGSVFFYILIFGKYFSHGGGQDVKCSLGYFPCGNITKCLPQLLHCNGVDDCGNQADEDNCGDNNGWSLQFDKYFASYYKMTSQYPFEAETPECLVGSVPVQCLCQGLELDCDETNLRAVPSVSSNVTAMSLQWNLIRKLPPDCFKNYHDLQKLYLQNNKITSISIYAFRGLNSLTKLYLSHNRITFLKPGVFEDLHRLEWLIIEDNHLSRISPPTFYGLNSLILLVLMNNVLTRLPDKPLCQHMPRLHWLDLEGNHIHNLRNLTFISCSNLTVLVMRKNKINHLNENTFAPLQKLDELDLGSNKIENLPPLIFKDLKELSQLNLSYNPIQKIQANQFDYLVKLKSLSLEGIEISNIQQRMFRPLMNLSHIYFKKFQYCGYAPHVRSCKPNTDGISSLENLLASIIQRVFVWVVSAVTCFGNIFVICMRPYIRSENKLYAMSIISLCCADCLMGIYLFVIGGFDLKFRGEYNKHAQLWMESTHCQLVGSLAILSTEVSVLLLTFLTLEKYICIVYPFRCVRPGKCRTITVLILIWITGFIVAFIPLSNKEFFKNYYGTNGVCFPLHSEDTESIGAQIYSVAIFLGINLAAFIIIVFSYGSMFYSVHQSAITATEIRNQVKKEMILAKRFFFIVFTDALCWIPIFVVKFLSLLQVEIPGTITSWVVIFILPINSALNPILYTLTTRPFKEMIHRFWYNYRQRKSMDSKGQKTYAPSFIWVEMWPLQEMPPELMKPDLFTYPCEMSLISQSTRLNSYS
Experiment: OVCAR5 cAMP assay (HTRF), RXFP1 agonist activity
Assay type: cell-based
Conditions: for Emax: OVCAR-5, maximal cAMP relative to H2-relaxin maximum (100%), read-out: EMax, OVCAR 5 cells (cAMP); for EC50: OVCAR5 cells, cAMP HTRF, read-out: EC50 (nM), OVCAR 5 cells (cAMP)
In short: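 OVCAR5 cells (endogenous RXFP1) pretreated 40 min at 37° C with 1 mM IBMX, then exposed to peptides in serum-free medium for 30 min at 37° C. Lysate cAMP read by HTRF; EC50 from variable-slope sigmoidal fit; Emax as % of H2-relaxin maximal cAMP in same run.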

SMILES: CCCCCCCCCCCCCCCC(=O)N[C@@H](CCC(=O)NCCOCCOCC(=O)NCCCC[C@H](NC(=O)[C@H](CCCCN)NC(=O)[C@H](CCCNC(=N)N)NC(=O)C(C)(C)NC(=O)[C@H](CO)NC(=O)[C@H](Cc1c[nH]c2ccccc12)NC(=O)[C@@H](NC(=O)[C@H](CO)NC(=O)[C@H](CCCC)NC(=O)CNC(=O)[C@H](CCC(=O)O)NC(=O)C(C)(C)NC(=O)C(C)(C)NC(=O)[C@@H](NC(=O)[C@H](CCC(N)=O)NC(=O)[C@H](C)NC(=O)[C@H](CCCNC(=N)N)NC(=O)[C@@H](NC(=O)[C@H](CCCCN)NC(=O)[C@H](CCC(=O)O)NC(=O)[C@H](CCCNC(=N)N)NC(=O)CNC(=O)[C@H](CCC(=O)O)NC(=O)[C@H](CC(C)C)NC(C)=O)C(C)C)[C@@H](C)CC)[C@@H](C)O)C(N)=O)C(=O)O [compound 53] (Ac-LEGREKVRAQI[Aib][Aib]EG[Nle]STWS[Aib]RKK([AEEA-γGlu-Palmitoyl])-NH2)
- Emax: 97%

SMILES: CCCCCCCCCCCCCCCC(=O)N[C@@H](CCC(=O)N[C@@H](CCC(=O)N[C@@H](CCC(=O)NCCOCCOCC(=O)NCCOCCOCC(=O)NCCCC[C@H](NC(=O)COCCOCCNC(=O)[C@H](CCCCN)NC(=O)[C@H](CCCNC(=N)N)NC(=O)C(C)(C)NC(=O)[C@H](CO)NC(=O)[C@H](Cc1c[nH]c2ccccc12)NC(=O)[C@@H](NC(=O)[C@H](CO)NC(=O)[C@H](CCCC)NC(=O)CNC(=O)[C@H](CCC(=O)O)NC(=O)C(C)(C)NC(=O)C(C)(C)NC(=O)[C@@H](NC(=O)[C@H](CCC(N)=O)NC(=O)[C@H](C)NC(=O)[C@H](CCCNC(=N)N)NC(=O)[C@@H](NC(=O)[C@H](CCCCN)NC(=O)[C@H](CCC(=O)O)NC(=O)[C@H](CCCNC(=N)N)NC(=O)CNC(=O)[C@H](CCC(=O)O)NC(=O)[C@H](CC(C)C)NC(C)=O)C(C)C)[C@@H](C)CC)[C@@H](C)O)C(N)=O)C(=O)O)C(=O)O)C(=O)O [compound 13] (Ac-LEGREKVRAQI[Aib][Aib]EG[Nle]STWS[Aib]RK[AEEA]K([AEEA-AEEA-γGlu-γGlu-γGlu-Palmitoyl])-NH2)
- Emax: 81%

SMILES: CCCCCCCCCCCCCCCCCC(=O)N[C@@H](CCC(=O)N[C@@H](CCC(=O)N[C@@H](CCC(=O)NCCOCCOCC(=O)NCCOCCOCC(=O)NCCCC[C@H](NC(=O)[C@H](CCCCN)NC(=O)[C@H](CCCNC(=N)N)NC(=O)C(C)(C)NC(=O)[C@H](CO)NC(=O)[C@H](Cc1c[nH]c2ccccc12)NC(=O)[C@@H](NC(=O)[C@H](CO)NC(=O)[C@H](CCCC)NC(=O)CNC(=O)[C@H](CCC(=O)O)NC(=O)C(C)(C)NC(=O)C(C)(C)NC(=O)[C@@H](NC(=O)[C@H](CCCCNC(C)=O)NC(=O)[C@H](C)NC(=O)[C@H](CCCNC(=N)N)NC(=O)[C@@H](NC(=O)[C@H](CCCCN)NC(=O)[C@H](CCC(=O)O)NC(=O)[C@H](CCCNC(=N)N)NC(=O)CNC(=O)[C@H](CCC(=O)O)NC(=O)[C@H](CC(C)C)NC(C)=O)C(C)C)[C@@H](C)CC)[C@@H](C)O)C(N)=O)C(=O)O)C(=O)O)C(=O)O [compound 73] (Ac-LEGREKVRAK(Ac)I[Aib][Aib]EG[Nle]STWS[Aib]RKK([AEEA-AEEA-γGlu-γGlu-γGlu-Stearoyl])-NH2)
- EC50: 0.12 nM
- Emax: 90%

SMILES: CCCCCCCCCCCCCCCC(=O)N[C@@H](CCC(=O)N[C@@H](CCC(=O)N[C@@H](CCC(=O)N[C@@H](CCC(=O)NCCCC[C@H](NC(=O)CCC(=O)NCCCOCCOCCOCCCNC(=O)CCC(=O)NCCCOCCOCCOCCCNC(=O)[C@H](CCCCNC(C)=O)NC(=O)[C@H](CCCCN)NC(=O)[C@H](CCCNC(=N)N)NC(=O)[C@](C)(CCCCN)NC(=O)[C@H](CO)NC(=O)[C@H](Cc1ccccc1)NC(=O)[C@@H](NC(=O)[C@H](CO)NC(=O)[C@H](CCCC)NC(=O)CNC(=O)[C@H](CCC(=O)O)NC(=O)C(C)(C)NC(=O)C(C)(C)NC(=O)[C@@H](NC(=O)[C@H](CCCCNC(C)=O)NC(=O)[C@H](C)NC(=O)[C@H](CCCNC(=N)N)NC(=O)[C@@H](NC(=O)[C@H](CCCCN)NC(=O)[C@H](CCC(=O)O)NC(=O)[C@H](CCCNC(=N)N)NC(=O)CNC(=O)[C@H](CCC(=O)O)NC(=O)[C@H](CC(C)C)NC(C)=O)C(C)C)[C@@H](C)CC)[C@@H](C)O)C(N)=O)C(=O)O)C(=O)O)C(=O)O)C(=O)O [compound 142] (Ac-LEGREKVRAK(Ac)I[Aib][Aib]EG[Nle]STFS[αMeK]RKK(Ac)-X3)
- EC50: 0.02 nM
- Emax: 91%

SMILES: CCCCCCCCCCCCCCCCCC(=O)N[C@@H](CCC(=O)N[C@@H](CCC(=O)N[C@@H](CCC(=O)NCCOCCOCC(=O)NCCOCCOCC(=O)NCCOCCOCC(=O)NCCCC[C@H](NC(=O)[C@H](CCCCNC(C)=O)NC(=O)[C@H](CCCCN)NC(=O)[C@H](CCCNC(=N)N)NC(=O)C(C)(C)NC(=O)[C@H](CO)NC(=O)[C@H](Cc1cccc2ccccc12)NC(=O)[C@@H](NC(=O)[C@H](CO)NC(=O)[C@H](CCCC)NC(=O)CNC(=O)[C@H](CCC(=O)O)NC(=O)C(C)(C)NC(=O)C(C)(C)NC(=O)[C@@H](NC(=O)[C@H](CCCCNC(C)=O)NC(=O)[C@H](C)NC(=O)[C@H](CCCNC(=N)N)NC(=O)[C@@H](NC(=O)[C@H](CCCCN)NC(=O)[C@H](CCC(=O)O)NC(=O)[C@H](CCCNC(=N)N)NC(=O)CNC(=O)[C@H](CCC(=O)O)NC(=O)[C@H](CC(C)C)NC(C)=O)C(C)C)[C@@H](C)CC)[C@@H](C)O)C(N)=O)C(=O)O)C(=O)O)C(=O)O [compound 84] (Ac-LEGREKVRAK(Ac)I[Aib][Aib]EG[Nle]ST[1Nal]S[Aib]RKK(Ac)K([AEEA-AEEA-AEEA-γGlu-γGlu-γGlu-Stearoyl])-NH2)
- EC50: 0.09 nM
- Emax: 76%

SMILES: CCCCCCCCCCCCCCCC(=O)N[C@@H](CCC(=O)NCCCC[C@H](NC(=O)CC[C@H](NC(=O)CC[C@H](NC(=O)COCCOCCNC(=O)COCCOCCNC(=O)COCCOCCNC(=O)[C@H](CCCCNC(C)=O)NC(=O)[C@H](CCCCN)NC(=O)[C@H](CCCNC(=N)N)NC(=O)C(C)(C)NC(=O)[C@H](CO)NC(=O)[C@H](Cc1c[nH]c2ccccc12)NC(=O)[C@@H](NC(=O)[C@H](CO)NC(=O)[C@H](CCCC)NC(=O)CNC(=O)[C@H](CCC(=O)O)NC(=O)C(C)(C)NC(=O)C(C)(C)NC(=O)[C@@H](NC(=O)[C@H](CCC(N)=O)NC(=O)[C@H](C)NC(=O)[C@H](CCCNC(=N)N)NC(=O)[C@@H](NC(=O)[C@H](CCCCN)NC(=O)[C@H](CCC(=O)O)NC(=O)[C@H](CCCNC(=N)N)NC(=O)CNC(=O)[C@H](CCC(=O)O)NC(=O)[C@H](CC(C)C)NC(C)=O)C(C)C)[C@@H](C)CC)[C@@H](C)O)C(=O)O)C(=O)O)C(N)=O)C(=O)O [compound 119] (Ac-LEGREKVRAQI[Aib][Aib]EG[Nle]STWS[Aib]RKK(Ac)[AEEA][AEEA][AEEA][γGlu][γGlu]K([γGlu-Palmitoyl])-NH2)
- EC50: 1.21 nM
- Emax: 83%

SMILES: CCCCCCCCCCCCCCCC(=O)N[C@@H](CCC(=O)NCCCC[C@H](NC(=O)CC[C@H](NC(=O)CC[C@H](NC(=O)CC[C@H](NC(=O)CCC(=O)NCCCOCCOCCOCCCNC(=O)CCC(=O)NCCCOCCOCCOCCCNC(=O)[C@H](CCCCNC(C)=O)NC(=O)[C@H](CCCCN)NC(=O)[C@H](CCCNC(=N)N)NC(=O)[C@](C)(CCCCN)NC(=O)[C@H](CO)NC(=O)[C@H](Cc1ccccc1)NC(=O)[C@@H](NC(=O)[C@H](CO)NC(=O)[C@H](CCCC)NC(=O)CNC(=O)[C@H](CCC(=O)O)NC(=O)C(C)(C)NC(=O)C(C)(C)NC(=O)[C@@H](NC(=O)[C@H](CCCCNC(C)=O)NC(=O)[C@H](C)NC(=O)[C@H](CCCNC(=N)N)NC(=O)[C@@H](NC(=O)[C@H](CCCCN)NC(=O)[C@H](CCC(=O)O)NC(=O)[C@H](CCCNC(=N)N)NC(=O)CNC(=O)[C@H](CCC(=O)O)NC(=O)[C@H](CC(C)C)NC(C)=O)C(C)C)[C@@H](C)CC)[C@@H](C)O)C(=O)O)C(=O)O)C(=O)O)C(N)=O)C(=O)O [compound 146] (Ac-LEGREKVRAK(Ac)I[Aib][Aib]EG[Nle]STFS[αMeK]RKK(Ac)-X5)
- EC50: 0.02 nM
- Emax: 89%

SMILES: CCCCCCCCCCCCCCCCCC(=O)N[C@@H](CCC(=O)N[C@@H](CCC(=O)N[C@@H](CCC(=O)NCCOCCOCC(=O)NCCOCCOCC(=O)NCCCC[C@H](NC(=O)[C@H](CCCCN)NC(=O)[C@H](CCCCN)NC(=O)[C@H](CCCNC(=N)N)NC(=O)C(C)(C)NC(=O)[C@H](CO)NC(=O)[C@H](Cc1c[nH]c2ccccc12)NC(=O)[C@@H](NC(=O)[C@H](CO)NC(=O)[C@H](CCCC)NC(=O)CNC(=O)[C@H](CCC(=O)O)NC(=O)C(C)(C)NC(=O)C(C)(C)NC(=O)[C@@H](NC(=O)[C@H](CCC(N)=O)NC(=O)[C@H](C)NC(=O)[C@H](CCCNC(=N)N)NC(=O)[C@@H](NC(=O)[C@H](CCCCN)NC(=O)[C@H](CCC(=O)O)NC(=O)[C@H](CCCNC(=N)N)NC(=O)CNC(=O)[C@H](CCC(=O)O)NC(=O)[C@H](CC(C)C)NC(C)=O)C(C)C)[C@@H](C)CC)[C@@H](C)O)C(N)=O)C(=O)O)C(=O)O)C(=O)O [compound 71] (Ac-LEGREKVRAQI[Aib][Aib]EG[Nle]STWS[Aib]RKKK([AEEA-AEEA-γGlu-γGlu-γGlu-Stearoyl])-NH2)
- Emax: 87%
